Patent publication US10501518B2 (priority 2013, dated 2019)

Tests used:
WT human PTHR-1 = target: T1, WT human PTHR-1 (Homo sapiens, UniProt Q03431); assay: cAMP GloSensor dose-response in GP-2.3 cells expressing human PTHR-1; format: cell-based
T1 construct: bioactivity of the resulting compound in full-length hPTHR-1 and a truncated version; expressed in transfected cells
T1 sequence (Q03431 27-593): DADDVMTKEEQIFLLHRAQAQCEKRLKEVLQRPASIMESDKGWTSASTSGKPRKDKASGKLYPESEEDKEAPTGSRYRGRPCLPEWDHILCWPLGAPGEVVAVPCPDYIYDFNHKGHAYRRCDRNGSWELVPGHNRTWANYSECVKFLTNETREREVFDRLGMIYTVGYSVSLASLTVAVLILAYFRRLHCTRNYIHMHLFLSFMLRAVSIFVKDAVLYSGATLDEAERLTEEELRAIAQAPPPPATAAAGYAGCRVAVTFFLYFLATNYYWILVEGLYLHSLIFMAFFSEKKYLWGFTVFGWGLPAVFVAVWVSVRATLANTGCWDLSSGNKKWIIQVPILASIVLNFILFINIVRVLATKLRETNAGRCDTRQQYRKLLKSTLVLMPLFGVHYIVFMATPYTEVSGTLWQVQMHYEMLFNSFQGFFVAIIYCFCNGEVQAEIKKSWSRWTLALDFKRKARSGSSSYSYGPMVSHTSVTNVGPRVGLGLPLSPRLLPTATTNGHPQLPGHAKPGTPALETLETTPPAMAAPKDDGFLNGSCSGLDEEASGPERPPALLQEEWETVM
Outline: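 Confluent cells preloaded with 0.5 mM d-luciferin at room temperature until luminescence baseline stabilised (30 min), then given varying agonist concentrations. Luminescence time course recorded after α/β-peptide addition. Means ±SEM of n>4 experiments, each in duplicate.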

PTH2R/PTH1R = assay: cAMP response selectivity between PTH2R and PTH1R; format: cell-based; conditions: Table 16; most selective
Description: Selected analogs containing beta-amino acid substitutions selectively signal through one or the other of the two receptors. Without being bound to any underling biological phenomenon or mechanism, PTHR-2 likely serves an alternative function to PTHR-1 as it is highly expressed in the central nervous system. In contrast, PTHR-1 is highly expressed in bone and kidney, but not in the CNS. The analogs disclosed herein are thus useful as therapeutic compounds that a specific agonists or antagonists of PTHR-1 and PTHR-2.

delNT PTHR1 = target: T2, delNT PTHR1 (Homo sapiens, UniProt Q03431, DEL24-181); assay: cAMP-inducing potency at truncated receptor delNT PTHR1; format: cell-based; conditions: Table 8; EC50 relative to PTH(1-34)
T2 construct: expressed in transfected cells
T2 sequence (Q03431 with tags, fused parts or gaps DEL24-181): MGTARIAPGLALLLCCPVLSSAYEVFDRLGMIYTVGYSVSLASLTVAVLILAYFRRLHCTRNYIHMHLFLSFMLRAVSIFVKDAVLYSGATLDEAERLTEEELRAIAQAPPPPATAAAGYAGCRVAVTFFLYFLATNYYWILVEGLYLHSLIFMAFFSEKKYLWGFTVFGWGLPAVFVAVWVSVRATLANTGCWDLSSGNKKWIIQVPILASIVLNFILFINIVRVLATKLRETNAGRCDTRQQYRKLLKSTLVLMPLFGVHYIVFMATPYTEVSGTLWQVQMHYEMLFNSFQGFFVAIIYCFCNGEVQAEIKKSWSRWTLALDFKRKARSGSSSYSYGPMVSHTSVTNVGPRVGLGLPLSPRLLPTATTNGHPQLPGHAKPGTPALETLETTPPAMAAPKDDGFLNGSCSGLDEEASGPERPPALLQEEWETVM

WT rat PTHR-1 = target: T3, WT rat PTHR-1 (Rattus norvegicus, UniProt P25961); assay: cAMP GloSensor dose-response in GR-35 cells expressing rat PTHR-1; format: cell-based; conditions: Table 7; GR-35 cells, 12-16 minutes after ligand addition; mean ± SEM
T3 construct: expressed in transfected cells
T3 sequence (P25961 27-591): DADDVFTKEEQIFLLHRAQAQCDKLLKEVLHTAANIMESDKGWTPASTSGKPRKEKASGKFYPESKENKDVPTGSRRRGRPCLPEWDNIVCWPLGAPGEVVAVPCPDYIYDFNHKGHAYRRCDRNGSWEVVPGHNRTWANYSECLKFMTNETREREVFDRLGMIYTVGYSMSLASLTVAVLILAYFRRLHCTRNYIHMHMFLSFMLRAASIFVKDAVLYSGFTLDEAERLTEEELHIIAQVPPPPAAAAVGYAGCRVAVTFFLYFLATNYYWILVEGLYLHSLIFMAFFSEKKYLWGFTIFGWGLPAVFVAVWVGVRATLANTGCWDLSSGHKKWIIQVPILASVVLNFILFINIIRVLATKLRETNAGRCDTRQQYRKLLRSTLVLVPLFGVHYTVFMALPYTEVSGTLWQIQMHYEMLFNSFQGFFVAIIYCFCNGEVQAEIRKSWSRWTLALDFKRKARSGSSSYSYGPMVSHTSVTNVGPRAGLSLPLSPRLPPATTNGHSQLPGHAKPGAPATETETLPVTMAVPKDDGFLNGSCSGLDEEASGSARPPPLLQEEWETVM
Procedure: FIGS. 9A, 9B, and 9C constitute a series of graphs depicting cAMP responses in GR-35 cells expressing rat PTHR-1-WT. […] Data are means (±SEM) of n>4 experiments, each performed in duplicate.
For cAMP dose-response assays, monolayers of confluent HEK 293 cells were pre-incubated with buffer containing d-luciferin (0.5 mM) in 96 well plates at room temperature until a stable baseline level of luminescence was established (30 min). Varying concentrations of agonist were then added, and the time course of luminescence response was recorded using a Perkin Elmer plate reader following α/β-peptide addition.

RG form of rat PTHR-1 = target: T4, RG form of rat PTHR-1 (Rattus norvegicus, UniProt P25961); assay: Radio-ligand competition binding to RG form of rat PTHR-1; conditions: Table 5; rat PTHR-1; mean ± SEM; read-out: RG -log (IC50) (converted)
T4 construct: expressed in transfected cells; host or cells: COS-7
T4 sequence (P25961 27-591): T3 sequence (P25961 27-591)
Description: Data are means (±SEM) of n≥4 experiments, each performed in duplicate.

| Fold PTH, nM (hPTHR1) (WT human PTHR-1; Table 8, EC50 relative to PTH(1-34)) | Fold PTH, nM (deINT PTHR1) (delNT PTHR1) | cAMP (hPTHR-1) Max (WT human PTHR-1; Table 1, luminescence counts per second relative to PTH(1-34), 12-16 minutes after ligand addition) | IC50 (RG form of rat PTHR-1) | Structure (SMILES) | cAMP response PTH2R/PTH1R (PTH2R/PTH1R) | Max (WT rat PTHR-1) | Max (WT human PTHR-1; Table 6, GP-2.3 cells, 12-16 minutes after ligand addition, mean ± SEM) |
| --- | --- | --- | --- | --- | --- | --- | --- |
| 159.7 | 110 |  |  | CC[C@H](C)[C@H](NC(=O)[C@H](CCC(=O)O)NC(=O)[C@H](CO)NC(=O)[C@@H](NC(=O)[C@@H](N)CO)C(C)C)C(=O)N[C@@H](CCC(N)=O)CC(=O)N[C@@H](CC(C)C)C(=O)N[C@@H](CCSC)C(=O)N[C@@H](Cc1c[nH]cn1)C(=O)N[C@@H](CC(N)=O)C(=O)N[C@@H](CC(C)C)C(=O)NCC(=O)N[C@@H](CCCCN)C(=O)N[C@@H](Cc1c[nH]cn1)C(=O)N[C@@H](CC(C)C)C(=O)N[C@@H](CC(N)=O)C(=O)N[C@@H](CO)C(=O)N[C@@H](CCSC)C(=O)N[C@@H](CCC(=O)O)C(=O)N[C@@H](CCCNC(=N)N)C(=O)N[C@H](C(=O)N[C@@H](CCC(=O)O)C(=O)N[C@@H](Cc1c[nH]c2ccccc12)C(=O)N[C@@H](CC(C)C)C(=O)N[C@@H](CCCNC(=N)N)C(=O)N[C@@H](CCCCN)C(=O)N[C@@H](CCCCN)C(=O)N[C@@H](CC(C)C)C(=O)N[C@@H](CCC(N)=O)C(=O)N[C@@H](CC(=O)O)C(=O)N[C@H](C(=O)N[C@@H](Cc1c[nH]cn1)C(=O)N[C@@H](CC(N)=O)C(=O)N[C@@H](Cc1ccccc1)C(N)=O)C(C)C)C(C)C [β^3Gln(6)] | 133 |  |  |
|  |  | 1.03 | 1.74 nM | CC[C@H](C)[C@H](NC(=O)[C@H](CCC(=O)O)NC(=O)[C@H](CO)NC(=O)[C@@H](NC(=O)[C@@H](N)CO)C(C)C)C(=O)N[C@@H](CCC(N)=O)C(=O)N[C@@H](CC(C)C)C(=O)N[C@@H](CCSC)C(=O)N[C@@H](Cc1c[nH]cn1)C(=O)N[C@@H](CC(N)=O)C(=O)N[C@@H](CC(C)C)C(=O)NCC(=O)N[C@@H](CCCCN)C(=O)N[C@@H](Cc1c[nH]cn1)C(=O)N[C@@H](CC(C)C)C(=O)N[C@@H](CC(N)=O)C(=O)N[C@@H](CO)C(=O)N[C@@H](CCSC)CC(=O)N[C@@H](CCC(=O)O)C(=O)N[C@@H](CCCNC(=N)N)C(=O)N[C@H](C(=O)N[C@@H](CCC(=O)O)CC(=O)N[C@@H](Cc1c[nH]c2ccccc12)C(=O)N[C@@H](CC(C)C)C(=O)N[C@@H](CCCNC(=N)N)C(=O)N[C@@H](CCCCN)CC(=O)N[C@@H](CCCCN)C(=O)N[C@@H](CC(C)C)C(=O)N[C@@H](CCC(N)=O)C(=O)N[C@@H](CC(=O)O)CC(=O)N[C@H](C(=O)N[C@@H](Cc1c[nH]cn1)C(=O)N[C@@H](CC(N)=O)C(=O)N[C@H](CC(N)=O)Cc1ccccc1)C(C)C)C(C)C [D5] |  | 43 ± 17 luminescence counts per second × 10−3 | 223 ± 36 luminescence counts per second × 10^−3 |
